Data on seven compounds can be found in patent US6576784B1, “Antiviral agents” (Yeda Research and Development Co. Ltd., priority 1993, dated 2003).

Data set [1] can be described thus: Quantum yield of singlet oxygen formation on irradiation in liposomes. It is filed as physicochemical. Conditions: for Quantum yields of singlet oxygen (φΔ) formed on irradiation of hypericin analogs in liposomes: soya liposomes, DPBF, light of 420 nm; for singlet oxygen formed on irradiation in liposomes (in words): irradiation with visible light, bound to liposomes.

For data set [2], the system named is non-enveloped viruses such as polio and rhino viruses. The settings on record: Tang et al., Antiviral Res. 13:313 (1990); cited from earlier work.
Data set [3] has as its system Murine Radiation Leukemia Virus (Rad LV). Briefly: Direct inactivation of murine radiation leukemia virus measured by inhibition of virus particle derived reverse transcriptase activity. The settings on record: 0.01 μg/ml; virus incubated with compound on ice 30 min; FIG. 1. Type of data set: biochemical. How it is done:
Determination of Antiretroviral Activity of Hypericin Analogs by Monitoring the Direct Inactivation of Murine Radiation Leukemia Virus (Rad LV) Measured by the Inhibition of Virus Particle Derived Reverse Transcriptase Activity
Virus particles released into the growth medium of the AQR lymphoblastoid cell line which is infected with and producing RadLV, were exposed to hypericin and hypericin analogs. The virus and the substrate were incubated on ice for a period of 30 min., after which time the virus was precipitated by ultracentrifugation at 40,000 rpm for 1 hour in a Beckman ultracentrifuge, and analyzed for reverse transcriptase according to Stephenson et al., Virology 48:749 (1972). The results shown in FIG. 1 are expressed as counts per minute of tritiated-thymidine incorporation.

Another data set relates to Murine Friend Virus. As to the kind of experiment: Inhibition of Friend virus splenomegaly in BALB/c mice. The settings on record: single intravenous dose within 1 hour of infection, FIG. 2. It is filed as in vivo. The text has this: Antiretroviral Activity of Hypericin Analogs Against Murine Friend Virus in BALB/c Mice
Mice infected with Friend virus (FV) develop a virus induced erythroleukemia whose early manifestation is a 4-8 time enlargement of the spleen size (splenomegaly) within 10 days after infection with the virus. Inhibition of splenomegaly can be used to quantitate the antiretroviral activity of various compounds in vivo. In this experiment, mice, in groups of 3, were infected with Friend virus and hypericin analogs (0.5 ml of solution in PBS) were then administered intravenously within 1 hour of the infection in a single dose of 1, 10, 50 and 150 μg per mouse.

The conditions of data set [4]: G. Lavie et al, J.N.Y. Acad. Sci. 616:556, 1990; cited from earlier work.

Bounds are passed on as bounds.

With “2-(2-Methoxyethoxy)ethyl Ester Analog of Hypericin [Example 5]”, the “Quantum yields of singlet oxygen (φΔ) formed on irradiation of hypericin analogs in liposomes” value in data set [1] worked out at 0.1. On to “2-Methoxyethyl Ester Analog of Hypericin [Example 4]”, for which the “Quantum yields of singlet oxygen (φΔ) formed on irradiation of hypericin analogs in liposomes” value in data set [1] came to 0.35. In the case of `Cc1cc(O)c2c(=O)c3c(O)cc(O)c4c5c(O)cc(O)c6c(=O)c7c(O)cc(C)c8c1c2c(c34)c(c78)c65` [hypericin, Hypericin, reference compound], in data set [1], the “singlet oxygen formed on irradiation in liposomes (in words)” value is “comparatively high”. Also, the “activity against non-enveloped viruses (in words)” value in data set [2] is “not active”.

For the compound “Methyl Ester Analog of Hypericin [Example 1]”, in data set [3], the “antiviral activity (inhibition of virus particle derived reverse transcriptase activity, tritiated-thymidine incorporation)” value is recorded as “antiviral activity”. Further, the “Quantum yields of singlet oxygen (φΔ) formed on irradiation of hypericin analogs in liposomes” value in data set [1] amounted to 0.38. For the same compound, in the data set on Murine Friend Virus (10 μg per mouse), the inhibition of splenomegaly amounted to 65%.

Turning to “n-butyl Ester Analog of Hypericin [Example 3]”, the “antiviral activity (inhibition of virus particle derived reverse transcriptase activity, tritiated-thymidine incorporation)” value in data set [3] is listed as “antiviral activity”. For the same compound, the inhibition of splenomegaly in the data set with Murine Friend Virus (150 μg per mouse) is 70%. Take “n-propyl Ester Analog of Hypericin [Example 2]”: in the data set with Murine Friend Virus (10 μg per mouse), the inhibition of splenomegaly is given as 47%. In the case of “octahydroxy hypericin [R1, R2 = OH, reference compound]”, in data set [1], the “singlet oxygen formed on irradiation in liposomes (in words)” value is given as “did not produce detectable yields of singlet oxygen” and the “Quantum yields of singlet oxygen (φΔ) formed on irradiation of hypericin analogs in liposomes” value is reported as less than 0.01. Besides, the “antiviral activity (in words)” value in data set [4] was “very weak antiviral activity”.
